Measured values: PubChem BioAssay (NCI)
Several values for one entry are separate records, joined by “and”; a condition that tells them apart may be missing. Equal entries are not always repeated.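 Results reflect a 48-hour exposure of cells in 96-well plates to compound at five concentrations. At the GI50, growth is halved. The concentration for full growth arrest is given as TGI.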

Assays:
Test in all cases: NCI anticancer screen, dose series, 48 h
DU-145 prostate = test system: DU-145 prostate
EKVX NSCLC = test system: EKVX NSCLC
K-562 leukemia = test system: K-562 leukemia
OVCAR-5 ovarian = test system: OVCAR-5 ovarian
PC-3 prostate = test system: PC-3 prostate
SF-295 CNS = test system: SF-295 CNS
SK-MEL-2 melanoma = test system: SK-MEL-2 melanoma
T-47D breast = test system: T-47D breast

SMILES	GI50 (DU-145 prostate)	TGI (DU-145 prostate)	GI50 (EKVX NSCLC)	TGI (EKVX NSCLC)	GI50 (K-562 leukemia) [µM]	TGI (K-562 leukemia) [µM]	GI50 (OVCAR-5 ovarian)	TGI (OVCAR-5 ovarian)	GI50 (PC-3 prostate)	TGI (PC-3 prostate)	GI50 (SF-295 CNS)	TGI (SF-295 CNS)	GI50 (SK-MEL-2 melanoma)	TGI (SK-MEL-2 melanoma)	GI50 (T-47D breast)	TGI (T-47D breast)
CN1CCN(Cc2ccc(NC(=O)c3cncc(C#Cc4ccc(N)nc4)c3)cc2C(F)(F)F)CC1	0.845 µM	6.71 µM	1.16 µM	6.08 µM	0.005	5.54	1.38 µM	7.22 µM	1.58 µM	8.3 µM	1.23 µM	4.79 µM	0.363 µM	1.36 µM	1.35 µM	7.14 µM
CC1(C)OCC2OC(n3cnc4c(N)nc(Cl)nc43)C(OS(C)(=O)=O)C2O1 (stereo not given)	–	> 100 µM	–	> 100 µM	–	> 100	–	> 100 µM	–	> 100 µM	–	> 100 µM	–	> 100 µM	–	> 100 µM
Nc1nc(N)c2c(ccc3c2ccn3Cc2cccc([N+](=O)[O-])c2)n1	0.151 µM and 0.086 µM	2.08 µM and 2 µM	1.32 µM	–	–	21.6	0.0504 µM	2.36 µM	0.163 µM and 0.0201 µM	2.74 µM and 1.74 µM	–	3.49 µM and 4.55 µM	1.26 µM	2.62 µM	0.739 µM	3.05 µM
COc1c(C(N)=O)cc(-c2ccc(Cl)cc2)cc1-c1ccc(S(N)(=O)=O)cc1	9.29 µM	> 25 µM	8.91 µM	> 25 µM	7.94	> 20.3	15 µM	> 25 µM	7.08 µM	24.8 µM	11.2 µM	> 25 µM	7.89 µM	21 µM	9.71 µM	> 25 µM
C[C@@H]1CC[C@@H]2[C@@H]1[C@H](OC(=O)/C=C/C1CCCCC1)[C@]1(C3CCCCC3)C[C@@H](OC(=O)CO)[C@@]2(C)O1	14.3 µM	27.3 µM	12.1 µM	24.4 µM	15.9	35.9	15.8 µM	29.9 µM	11.5 µM	24.3 µM	14.3 µM	26.7 µM	15 µM	28.5 µM	11.1 µM	24.1 µM
O=C1C2=C(C(=O)c3ccccc31)C(O)(S(=O)(=O)O)C(O)(S(=O)(=O)O)C1N=CC=CC21 (stereo not given)	6.09 µM and 5.9 µM	44 µM and 22.2 µM	3.32 µM and 2.71 µM	31.9 µM and 14.5 µM	3.71	> 100	8.7 µM and 9.31 µM	> 100 µM and 45.7 µM	4.69 µM and 3.2 µM	> 100 µM and 29.6 µM	2.57 µM and 1.13 µM	6.68 µM and 8.19 µM	10.1 µM and 9.93 µM	70.3 µM and 33.1 µM	3.97 µM and 4.7 µM	28.5 µM and 30.7 µM
CC(C)(C)NCC(O)c1ccccc1Cl (stereo not given)	> 100 µM	> 100 µM	> 100 µM	> 100 µM	> 100	> 100	> 100 µM	> 100 µM	> 100 µM	> 100 µM	> 100 µM	> 100 µM	> 100 µM	> 100 µM	> 100 µM	> 100 µM
CC12CCC(C1)C(C)(C)C2OC(=O)c1ccccc1N (stereo not given)	–	33.3 µM	–	30.2 µM	–	32.1	–	35 µM	–	27.3 µM	–	35.6 µM	–	29.5 µM	–	32.1 µM
CCOC(=O)N1CCC(N=C2CSc3nnc(-c4cc(C(F)(F)F)cc(C(F)(F)F)c4)n3N2)CC1	2.39 µM	6.17 µM	1.77 µM	5.43 µM	2.88	6.92	1.95 µM	4 µM	2.2 µM	6.27 µM	1.51 µM	3.08 µM	2 µM	3.6 µM	2.6 µM	6.82 µM
COC(=O)Nc1nc2ccc(C(=O)c3cccc(I)c3)cc2[nH]1	0.0861 µM	1.76 µM	0.176 µM	> 87.9 µM	0.0364	14.2	0.173 µM	17 µM	0.0457 µM	6.18 µM	0.0647 µM	5.94 µM	1.26 µM	> 72.3 µM	16.5 µM	> 100 µM
CC(=O)OC1CC2(C)C(=CC1C1SCCS1)CCC1C2CCC2(C)C(OC(C)=O)CCC12 (stereo not given)	–	> 100 µM	–	> 100 µM	–	> 100	–	> 100 µM	–	> 100 µM	–	90 µM	–	> 100 µM	–	> 100 µM
Clc1cnc(Nc2ccc(OCCN3CCCC3)cc2)nc1NCc1ccco1	3.43 µM	> 100 µM	2.1 µM	6.47 µM	3.19	52.6	1.95 µM	> 100 µM	2.66 µM	8.53 µM	2.18 µM	6.63 µM	1.8 µM	3.48 µM	3.14 µM	10.6 µM
